Laboratory results as given in BindingDB's records for doi:10.1016/s0960-894x(02)01027-2 (Glaxosmithkline, 2003).

Assays:
[1] = target: Methionine--tRNA ligase (Staphylococcus aureus); test: Compound tested for inhibition of Staphylococcus aureus MRS (methionyl tRNA synthetase) in aminoacylation assay
[2] = target: Methionine--tRNA ligase (Staphylococcus aureus); test: Compound tested for inhibition of Staphylococcus aureus MRS(methionyl tRNA synthetase) in aminoacylation assay

IC50 [1] [nM] | IC50 [2] [nM] | SMILES
< 3 | – | Oc1cc(NCCCNC2CCNc3c(Br)cc(Cl)cc32)nc2ccccc12 (stereo unspecified)
< 3 | – | O=c1cc(NCCCNC2CCOc3c(Cl)cc(Cl)cc32)[nH]c2ccccc12 (stereo unspecified)
< 3 | – | Oc1cc(NCCCNC2CCNc3c(Cl)cc(Br)cc32)nc2ccccc12 (stereo unspecified)
< 3 | – | C=CCc1cc(I)cc(CNCCCNc2cc(O)c3ccccc3n2)c1OCC
7.8 | – | Oc1cc(NCCCNC2CCOc3c(Br)cc(Br)cc32)nc2ccccc12 (stereo unspecified) [2-(3-(6,8-dibromo-3,4-dihydro-2H-chromen-4-ylamino)propylamino)quinolin-4(1H)-one]
– | 300 | Oc1cc(NCCCNCc2ccccc2)nc2ccccc12 [2-(3-Benzylamino-propylamino)-1H-quinolin-4-one]
21 | – | CCOC(=O)c1cc(I)cc(CNCCCNc2cc(O)c3ccccc3n2)c1OCC [2-Ethoxy-5-iodo-3-{[3-(4-oxo-1,4-dihydro-quinolin-2-ylamino)-propylamino]-methyl}-benzoic acid ethyl ester]
– | 15 | Oc1cc(NCCCNCc2cccc(Cl)c2Cl)nc2ccccc12 [2-[3-(2,3-Dichloro-benzylamino)-propylamino]-1H-quinolin-4-one]
– | 9 | Oc1cc(NCCCNCc2cc(Cl)ccc2Cl)nc2ccccc12 [2-[3-(2,5-Dichloro-benzylamino)-propylamino]-1H-quinolin-4-one]
– | 7.2 | C=CCOc1c(Cl)cc(Cl)cc1CNCCCNc1cc(O)c2ccccc2n1 [2-[3-(2-Allyloxy-3,5-dichloro-benzylamino)-propylamino]-1H-quinolin-4-one]
– | 9.1 | Nc1c(Br)cc(Br)cc1CNCCCNc1cc(O)c2ccccc2n1 [2-[3-(2-Amino-3,5-dibromo-benzylamino)-propylamino]-1H-quinolin-4-one]
4.1 | – | CCOc1c(CO)cc(I)cc1CNCCCNc1cc(O)c2ccccc2n1 [2-[3-(2-Ethoxy-3-hydroxymethyl-5-iodo-benzylamino)-propylamino]-1H-quinolin-4-one]
3.3 | – | CCOc1c(I)cc(OC)cc1CNCCCNc1cc(O)c2ccccc2n1 [2-[3-(2-Ethoxy-3-iodo-5-methoxy-benzylamino)-propylamino]-1H-quinolin-4-one]
17 | – | CCOc1c(I)cc(COC)cc1CNCCCNc1cc(O)c2ccccc2n1 [2-[3-(2-Ethoxy-3-iodo-5-methoxymethyl-benzylamino)-propylamino]-1H-quinolin-4-one]
7.2 | – | CCOc1c(I)cc(C)cc1CNCCCNc1cc(O)c2ccccc2n1 [2-[3-(2-Ethoxy-3-iodo-5-methyl-benzylamino)-propylamino]-1H-quinolin-4-one]
5.1 | – | CCOc1c(C)cc(SC)cc1CNCCCNc1cc(O)c2ccccc2n1 [2-[3-(2-Ethoxy-3-methyl-5-methylsulfanyl-benzylamino)-propylamino]-1H-quinolin-4-one]
6.8 | – | CCOc1c(C)cc(C(F)(F)F)cc1CNCCCNc1cc(O)c2ccccc2n1 [2-[3-(2-Ethoxy-3-methyl-5-trifluoromethyl-benzylamino)-propylamino]-1H-quinolin-4-one]
14 | – | CCOc1c(I)cc(CO)cc1CNCCCNc1cc(O)c2ccccc2n1 [2-[3-(2-Ethoxy-5-hydroxymethyl-3-iodo-benzylamino)-propylamino]-1H-quinolin-4-one]
9.4 | – | CCOc1c(CNCCCNc2cc(O)c3ccccc3n2)cc(I)cc1COC [2-[3-(2-Ethoxy-5-iodo-3-methoxymethyl-benzylamino)-propylamino]-1H-quinolin-4-one]
3.2 | – | CCOc1c(C)cc(I)cc1CNCCCNc1cc(O)c2ccccc2n1 [2-[3-(2-Ethoxy-5-iodo-3-methyl-benzylamino)-propylamino]-1H-quinolin-4-one]
16 | – | Oc1cc(NCCCNCc2ccc(Cl)c(Cl)c2)nc2ccccc12 [2-[3-(3,4-Dichloro-benzylamino)-propylamino]-1H-quinolin-4-one]
– | 50 | Oc1cc(NCCCOCc2ccc(Cl)c(Cl)c2)nc2ccccc12 [2-[3-(3,4-Dichloro-benzyloxy)-propylamino]-1H-quinolin-4-one]
– | 170 | Oc1cc(NCCCSCc2ccc(Cl)c(Cl)c2)nc2ccccc12 [2-[3-(3,4-Dichloro-benzylsulfanyl)-propylamino]-1H-quinolin-4-one]
– | 4.4 | CCOc1c(Br)cc(Br)cc1CNCCCNc1cc(O)c2ccccc2n1 [2-[3-(3,5-Dibromo-2-ethoxy-benzylamino)-propylamino]-1H-quinolin-4-one]
– | 18 | CCNc1c(Br)cc(Br)cc1CNCCCNc1cc(O)c2ccccc2n1 [2-[3-(3,5-Dibromo-2-ethylamino-benzylamino)-propylamino]-1H-quinolin-4-one]
– | 11 | CNc1c(Br)cc(Br)cc1CNCCCNc1cc(O)c2ccccc2n1 [2-[3-(3,5-Dibromo-2-methylamino-benzylamino)-propylamino]-1H-quinolin-4-one]

IC50 [1] [nM] | IC50 [2] [nM] | SMILES
– | 14 | CCOc1c(Cl)cc(Cl)cc1CNCCCNc1cc(O)c2ccccc2n1 [2-[3-(3,5-Dichloro-2-ethoxy-benzylamino)-propylamino]-1H-quinolin-4-one]
– | 29 | CC(C)Oc1c(Cl)cc(Cl)cc1CNCCCNc1cc(O)c2ccccc2n1 [2-[3-(3,5-Dichloro-2-isopropoxy-benzylamino)-propylamino]-1H-quinolin-4-one]
– | 3 | Oc1cc(NCCCNCc2cc(Cl)cc(Cl)c2)nc2ccccc12 [2-[3-(3,5-Dichloro-benzylamino)-propylamino]-1H-quinolin-4-one]
– | 61 | CCOc1cc(Br)c(OCC)c(CNCCCNc2cc(O)c3ccccc3n2)c1 [2-[3-(3-Bromo-2,5-diethoxy-benzylamino)-propylamino]-1H-quinolin-4-one]
– | 8.8 | CCOc1c(Br)cc(I)cc1CNCCCNc1cc(O)c2ccccc2n1 [2-[3-(3-Bromo-2-ethoxy-5-iodo-benzylamino)-propylamino]-1H-quinolin-4-one]
23 | – | CCOc1c(Br)cc([S+](C)[O-])cc1CNCCCNc1cc(O)c2ccccc2n1 (stereo unspecified) [2-[3-(3-Bromo-2-ethoxy-5-methanesulfinyl-benzylamino)-propylamino]-1H-quinolin-4-one]
– | 3.1 | CCOc1c(Br)cc(OC)cc1CNCCCNc1cc(O)c2ccccc2n1 [2-[3-(3-Bromo-2-ethoxy-5-methoxy-benzylamino)-propylamino]-1H-quinolin-4-one]
– | 4.9 | CCOc1c(Br)cc(C)cc1CNCCCNc1cc(O)c2ccccc2n1 [2-[3-(3-Bromo-2-ethoxy-5-methyl-benzylamino)-propylamino]-1H-quinolin-4-one]
– | 4.7 | CCOc1c(Br)cc(SC)cc1CNCCCNc1cc(O)c2ccccc2n1 [2-[3-(3-Bromo-2-ethoxy-5-methylsulfanyl-benzylamino)-propylamino]-1H-quinolin-4-one]
120 | – | CCOc1c(CNCCCNc2cc(O)c3ccccc3n2)cc(I)cc1C(C)(C)C [2-[3-(3-tert-Butyl-2-ethoxy-5-iodo-benzylamino)-propylamino]-1H-quinolin-4-one]
5.1 | – | Oc1cc(NCCCNC2CCc3c(Cl)cc(Cl)cc32)nc2ccccc12 (stereo unspecified) [2-[3-(4,6-Dichloro-indan-1-ylamino)-propylamino]-1H-quinolin-4-one]
3.8 | – | Oc1cc(NCCCNC2CCCc3c(Cl)cc(Cl)cc32)nc2ccccc12 (stereo unspecified) [2-[3-(5,7-Dichloro-1,2,3,4-tetrahydro-naphthalen-1-ylamino)-propylamino]-1H-quinolin-4-one]
6 | – | Oc1cc(NCCCNC2COc3c(Cl)cc(Cl)cc32)nc2ccccc12 (stereo unspecified) [2-[3-(5,7-Dichloro-2,3-dihydro-benzofuran-3-ylamino)-propylamino]-1H-quinolin-4-one]
8 | – | Oc1cc(NCCCNC2CCNc3c(Br)cc(Br)cc32)nc2ccccc12 (stereo unspecified) [2-[3-(6,8-Dibromo-1,2,3,4-tetrahydro-quinolin-4-ylamino)-propylamino]-1H-quinolin-4-one]
23 | – | Oc1cc(NCCCNC2CCNc3c(Cl)cc(Cl)cc32)nc2ccccc12 (stereo unspecified) [2-[3-(6,8-Dichloro-1,2,3,4-tetrahydro-quinolin-4-ylamino)-propylamino]-1H-quinolin-4-one]
4.3 | – | CCc1cc(Br)cc2c1NCCC2NCCCNc1cc(O)c2ccccc2n1 (stereo unspecified) [2-[3-(6-Bromo-8-ethyl-1,2,3,4-tetrahydro-quinolin-4-ylamino)-propylamino]-1H-quinolin-4-one]
9.4 | – | Cc1cc(Br)cc2c1NCCC2NCCCNc1cc(O)c2ccccc2n1 (stereo unspecified) [2-[3-(6-Bromo-8-methyl-1,2,3,4-tetrahydro-quinolin-4-ylamino)-propylamino]-1H-quinolin-4-one]
9.4 | – | Oc1cc(NCCCNC2CCOc3c(I)cc(Cl)cc32)nc2ccccc12 (stereo unspecified) [2-[3-(6-Chloro-8-iodo-chroman-4-ylamino)-propylamino]-1H-quinolin-4-one]
12 | – | CCc1cc(I)c2c(c1)C(NCCCNc1cc(O)c3ccccc3n1)CCN2 (stereo unspecified) [2-[3-(6-Ethyl-8-iodo-1,2,3,4-tetrahydro-quinolin-4-ylamino)-propylamino]-1H-quinolin-4-one]
12 | – | Oc1cc(NCCCNC2CCOc3c(Cl)cc(I)cc32)nc2ccccc12 (stereo unspecified) [2-[3-(8-Chloro-6-iodo-chroman-4-ylamino)-propylamino]-1H-quinolin-4-one]
170 | – | CCOC(=O)c1cc(I)c(OCC)c(CNCCCNc2cc(O)c3ccccc3n2)c1 [4-Ethoxy-3-iodo-5-{[3-(4-oxo-1,4-dihydro-quinolin-2-ylamino)-propylamino]-methyl}-benzoic acid ethyl ester]
3.9 | – | CCOc1c(C)cc(C#N)cc1CNCCCNc1cc(O)c2ccccc2n1 [4-Ethoxy-3-methyl-5-{[3-(4-oxo-1,4-dihydro-quinolin-2-ylamino)-propylamino]-methyl}-benzonitrile]
4 | – | CCOc1c(C#N)cc(Br)cc1CNCCCNc1cc(O)c2ccccc2n1 [5-Bromo-2-ethoxy-3-{[3-(4-oxo-1,4-dihydro-quinolin-2-ylamino)-propylamino]-methyl}-benzonitrile]
13 | – | CCOc1c(CNCCCNc2cc(O)c3ccccc3n2)cc(Br)cc1OC [TCMDC-139833]
12 | – | CCOc1c(CNCCCNc2cc(O)c3ccccc3n2)cc(I)cc1OC [TCMDC-139847]
